Test results from ChEMBL document CHEMBL1153761, “Bisnicalaterine A, a vobasine-vobasine bisindole alkaloid from Hunteria zeylanica” (J Nat Prod, 2009).
Values after ≈ are worked out from the molar mass of the structure shown.

What was measured:
Type in all cases: functional, cell-based
HCT-116 = assay: Cytotoxicity against human HCT116 cells after 48 hrs by MTT assay; conditions: HCT-116, 48 h
HL-60 = assay: Cytotoxicity against human HL60 cells after 48 hrs by MTT assay; conditions: HL-60, 48 h
RPMI-8226 = assay: Cytotoxicity against human RPMI8226 cells after 48 hrs by MTT assay; conditions: RPMI-8226, 48 h
MCF7 = assay: Cytotoxicity against human MCF7 cells after 48 hrs by MTT assay; conditions: MCF7, 48 h
NCI-H226 = assay: Cytotoxicity against human NCI-H226 cells after 48 hrs by MTT assay; conditions: NCI-H226, 48 h

For `C/C=C1/CN(C)[C@H]2Cc3c([nH]c4ccccc34)[C@H](n3c4c(c5ccccc53)C[C@H]3[C@@H](C(=O)OC)[C@H](C[C@H]4O)/C(=C\C)CN3C)C[C@H]1[C@@H]2C(=O)OC` [BISNICALATERINE A], which IC50 (HCT-116) is on record?
Its IC50 is 21.9 µg/mL (≈ 31.7 µM).

What about the IC50 (HL-60) of the same molecule?
The IC50 was 16.2 µg/mL (≈ 23.4 µM).

What about the IC50 (RPMI-8226) of the same molecule?
The IC50 was 31.3 µg/mL (≈ 45.3 µM).

What about the IC50 (MCF7) of the same molecule?
The IC50 was 38 µg/mL (≈ 55 µM).

What about the IC50 (NCI-H226) of the same molecule?
Its IC50 is 28.1 µg/mL (≈ 40.7 µM).
